Test results reported in patent US9765074B2, “Inhibitors of the renal outer medullary potassium channel” (Merck Sharp & Dohme Corp., priority 2013, dated 2017).

molecular target: T1, hROMK (hKir1.1) (Homo sapiens, UniProt P48048); experiment: Thallium Flux Assay (ROMK channel functional thallium flux, FLIPR-Tetra); assay type: cell-based; conditions: HEK293 cells stably expressing hROMK (hKir1.1); 30 min compound incubation
T1 construct: expressed in transfected cells
T1 sequence (P48048 1-391): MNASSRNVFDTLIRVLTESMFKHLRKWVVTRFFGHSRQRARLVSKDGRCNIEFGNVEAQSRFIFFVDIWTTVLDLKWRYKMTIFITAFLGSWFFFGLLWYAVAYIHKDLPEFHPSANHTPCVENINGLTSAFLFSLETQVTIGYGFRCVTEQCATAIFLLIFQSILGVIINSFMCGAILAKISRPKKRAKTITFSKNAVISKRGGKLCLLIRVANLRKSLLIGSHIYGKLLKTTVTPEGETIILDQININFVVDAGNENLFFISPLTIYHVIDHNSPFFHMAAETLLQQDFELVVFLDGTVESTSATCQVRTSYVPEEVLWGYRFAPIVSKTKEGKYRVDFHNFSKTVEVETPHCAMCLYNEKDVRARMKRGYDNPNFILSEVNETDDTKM
Method: The following Thallium Flux Assay was performed on each of the final product compounds in the Examples.
Cell Culture Conditions—HEK293 cells stably expressing hROMK (hKir1.1) were grown at 37° C. in a 10% CO2 humidified incubator in complete growth media: Dulbecco's Modified Eagle Medium supplemented with non-essential amino acids, Penicillin/Streptomycin/Glutamine, G418 and FBS. At >80% confluency, aspirate the media from the flask and rinse with 10 mL Calcium/Magnesium-free PBS. Add 5 mL of 1× trypsin (prepared in Ca/Mg Free PBS) to T-225 flask and return flask to 37° C./CO2 incubator for 2-3 minutes. To dislodge the cell, gently bang the side of the flask with your hand. Triturate the cells completely and then transfer the cells to 25 mL complete media. Centrifuge at 1,500 rpm for 6 min followed by resuspension in complete growth media and determine cell concentration. For typical re-seeding, 4E6 cells/T-225 flask will attain >80% confluency in 4 days. Under ideal growth conditions and appropriate tissue culture practices, this cell line is stable for 40-45 passages. FluxOR Kit Components (Invitrogen F10017) • FluxOR™ Reagent (Component A) • FluxOR™ Assay Buffer (Component B)—10× Concentrate • PowerLoad™ Concentrate (Component C)—100× Concentrate • Probenecid (Component D)—Lyophilized sample is kept at −20° C. Water soluble, 100× after solubilization in 1 mL water. Store at 4° C. • FluxOR™ Chloride-free Buffer (Component E)—5× Concentrate • Potassium sulfate (K2SO4) Concentrate (Component F)—125 mM in water. Store at 4° C. • Thallium sulfate (Tl2SO4) Concentrate (Component G)—50 mM in water. Store at 4° C. • DMSO (dimethyl sulfoxide, Component H)—1 mL (100%) Reagent Preparation: FluxOR Working Solutions • 1000× FluxOR™ Reagent: Reconstitute a vial of component A in 100 μl DMSO; Mix well; Store 10 μl aliquots at −20° C. • 1× FluxOR™ Assay Buffer: Dilute Component B 10-fold with water; Adjust pH to 7.4 with Hepes/NaOH; Filter and store at 4° C. • Probenecid/Assay Buffer: 100 mL of 1× FluxOR™ Assay Buffer; 1 mL of reconstituted component D; Store at 4° C. • Loading Buffer (per microplate): 10 μl 1000× FluxOR™ Reagent; 100 μl component C; 10 mL Probenecid/Assay Buffer • Compound Buffer (per microplate): 20 mL Probenecid/Assay Buffer; 0.3 mM ouabain (10 mM ouabain in water can be stored in amber bottle/aluminum foil at room temperature); Test compound • 1× FluxOR™ Chloride-Free Buffer: Prepare 1× working solution in water. Can be stored at room temperature • Stimulant Buffer (prepared at 5× final concentration in 1× FluxOR™ Chloride-Free Buffer): 7.5 mM Thallium sulfate and 0.75 mM Potassium sulfate (to give a final assay concentration of 3 mM Thallium/0.3 mM Potassium). Store at 4° C. when not in use. If kept sterile, this solution is good for months. Assay Protocol—The ROMK channel functional thallium flux assay is performed in 384 wells, using the FLIPR-Tetra instrument. HEK-hKir1.1 cells are seeded in Poly-D-Lysine microplates and kept in a 37° C.-10% CO2 incubator overnight. On the day of the experiment, the growth media is replaced with the FluxOR™ reagent loading buffer and incubated, protected from light, at ambient temperature (23-25° C.) for 90 min. The loading buffer is replaced with assay buffer±test compound followed by 30 min incubation at ambient temperature, where the Thallium/Potassium stimulant is added to the microplate. Step Protocol • 1. Seed HEK-hKir1.1 cells (50 μl at 20,000 cells/well) in 384-well PDL coated Microplates • 2. Allow cells to adhere overnight in humidified 37° C./10% CO2 incubator • 3. Completely remove cell growth media from microplate and replace with 25 μl loading buffer • 4. Incubate Microplate at room temperature, protected form light, for 90 min • 5. Remove loading buffer and replace with 25 μl 1× Assay Buffer±test compound. • 6. Incubate microplate at room temperature, protected from light, for 30 min • 7. At FLIPR-Tetra 384: Add stimulant (Thallium/Potassium) solution to microplate and monitor fluorescence. […]

Compound | IC50 [nM]
O=C1C=C(N2CCC3(CCN(C[C@@H](O)c4ccc(-n5cnnn5)cc4F)CC3)C2=O)CO1 [Example 14, 8-{(2S)-2-[2-fluoro-4-(1H-tetrazol-1-yl)phenyl]-2-hydroxyethyl}-1-oxo-2-(5-oxo-2,5-dihydrofuran-3-yl)-2-aza-8-azoniaspiro[4.5]decane] | 20
CO[C@H](CN1CCC2(CC1)C[C@@H](C)N(C1=CC(=O)OC1)C2=O)c1cnc(-n2cnnn2)cn1 (single isomer, unassigned) [Example 286] | 60
O=C1C=C(N2C(=O)C3(CCN(C[C@H](O)c4ccc(-n5cnnn5)cn4)CC3)CC2C2CC2)CO1 (mixture of isomers) [Example 222, 3-cyclopropyl-8-{(2S)-2-hydroxy-2-[5-(1H-tetrazol-1-yl)pyridin-2-yl]ethyl}-2-(5-oxo-2,5-dihydrofuran-3-yl)-2,8-diazaspiro[4.5]decan-1-one] | 100
CC1=C(N2CCC3(CCN(CCc4ccc(-n5cnnn5)nn4)CC3)C2=O)COC1=O [Example 232, 8-(2-(6-(1H-Tetrazol-1-yl)pyridazin-3-yl)ethyl)-2-(4-methyl-5-oxo-2,5-dihydrofuran-3-yl)-2,8-diazaspiro[4.5]decan-1-one] | 10
O=C1C=C(N2C(=O)C3(CCN(C[C@H](O)c4cnc(-n5cnnn5)cn4)CC3)CC2C2CC2)CO1 (mixture of isomers) [Example 213, 3-cyclopropyl-8-{(2S)-2-hydroxy-2-[5-(1H-tetrazol-1-yl)pyrazin-2-yl]ethyl}-2-(5-oxo-2,5-dihydrofuran-3-yl)-2,8-diazaspiro[4.5]decan-1-one] | 40
CC1OC(=O)C=C1N1C(=O)C2(CCN(C[C@H](O)c3ccc(-n4cnnn4)nc3)CC2)C[C@H]1C (single isomer, unassigned) [Example 230] | 80
Cc1nc(-n2cnnn2)ccc1[C@H](O)CN1C2CCC1CC1(CCN(C3=CC(=O)OC3)C1=O)C2 (stereo partly drawn) [Example 42, (1R,5R)-8-{(2S)-2-hydroxy-2-[2-methyl-6-(1H-tetrazol-1-yl)pyridin-3-yl]ethyl}-2′-oxo-1′-(5-oxo-2,5-dihydrofuran-3-yl)spiro[8-azoniabicyclo[3.2.1]octane-3,3′-pyrrolidine]] | 20
C[C@H]1CC2(CCN(C[C@@H](O)c3ccc(-n4cnnn4)nc3)CC2)C(=O)N1C1=CC(=O)OC1 [Example 82, (3S)-8-{(2S)-2-hydroxy-2-[6-(1H-tetrazol-1-yl)pyridin-3-yl]ethyl}-3-methyl-1-oxo-2-(5-oxo-2,5-dihydrofuran-3-yl)-2-aza-8-azoniaspiro[4.5]decane] | 10
CC1=C(N2CCC3(CCN(C[C@@H](O)c4ccc(-n5cnnn5)nn4)CC3F)C2=O)COC1=O (single isomer, unassigned) [Example 197] | 30
CC1=C(N2CC(O)C3(CCN(CCc4ccc(-n5cnnn5)nc4)CC3)C2=O)COC1=O (single isomer, unassigned) [Example 245, 4-hydroxy-2-(4-methyl-5-oxo-2,5-dihydrofuran-3-yl)-1-oxo-8-{2-[6-(1H-tetrazol-1-yl)pyridin-3-yl]ethyl}-2-aza-8-azoniaspiro[4.5]decane] | 20
CC1=C(N2C=CC3(CCN(C[C@@H](O)c4ccc(-n5cnnn5)nc4)CC3)C2=O)COC1=O [Example 156, 8-{(2S)-2-hydroxy-2-[6-(1H-tetrazol-1-yl)pyridin-3-yl]ethyl}-2-(4-methyl-5-oxo-2,5-dihydrofuran-3-yl)-1-oxo-2-aza-8-azoniaspiro[4.5]dec-3-ene] | 20

Results, then the compound that gave them:

IC50 [nM] | Compound
80 | COCC1=C(N2CCC3(CCN(C[C@H](O)c4cnc(-n5cnnn5)cn4)CC3)C2=O)COC1=O [Example 200, 8-{(2S)-2-hydroxy-2-[5-(1H-tetrazol-1-yl)pyrazin-2-yl]ethyl}-2-[4-(methoxymethyl)-5-oxo-2,5-dihydrofuran-3-yl]-2,8-diazaspiro[4.5]decan-1-one]
40 | CC1=C(N2CCC3(CCN(C[C@H](O)c4cc(-n5cnnn5)ccn4)CC3)C2=O)COC1=O [Example 72, 8-{(2S)-2-hydroxy-2-[4-(1H-tetrazol-1-yl)pyridin-2-yl]ethyl}-2-(4-methyl-5-oxo-2,5-dihydrofuran-3-yl)-1-oxo-2-aza-8-azoniaspiro[4.5]decane]
20 | CC1=C(N2CCC3(CCN(C[C@H](O)c4ccc(-n5cnnn5)nn4)CC3)C2=O)COC1=O [Example 32, 8-{(2S)-2-hydroxy-2-[6-(1H-tetrazol-1-yl)pyridazin-3-yl]ethyl}-2-(4-methyl-5-oxo-2,5-dihydrofuran-3-yl)-1-oxo-2-aza-8-azoniaspiro[4.5]decane]
30 | COc1cc(-n2cnnn2)ncc1[C@@H](O)CN1CCC2(CC1)CCN(C1=C(C)C(=O)OC1)C2=O [Example 93, 8-{(2R)-2-hydroxy-2-[4-methoxy-6-(1H-tetrazol-1-yl)pyridin-3-yl]ethyl}-2-(4-methyl-5-oxo-2,5-dihydrofuran-3-yl)-1-oxo-2-aza-8-azoniaspiro[4.5]decane]
30 | CC1=C(N2CCC3(CCN(C[C@@H](O)c4ccc(-n5cnnn5)nc4)CC3)C2=O)COC1=O [Example 19, 8-{(2S)-2-hydroxy-2-[6-(1H-tetrazol-1-yl)pyridin-3-yl]ethyl}-2-(4-methyl-5-oxo-2,5-dihydrofuran-3-yl)-1-oxo-2-aza-8-azoniaspiro[4.5]decane]
10 | C[C@H]1CC2(CCN(C[C@H](O)c3cnc(-n4cnnn4)cn3)CC2)C(=O)N1C1=CC(=O)OC1 [Example 77, (3S)-8-{(2S)-2-hydroxy-2-[5-(1H-tetrazol-1-yl)pyrazin-2-yl]ethyl}-3-methyl-1-oxo-2-(5-oxo-2,5-dihydrofuran-3-yl)-2-aza-8-azoniaspiro[4.5]decane]
130 | C[C@@H]1CC2(CCN(C[C@@H](O)c3cnc(-n4cnnn4)cn3)CC2)C(=O)N1C1=CC(=O)OC1 [Example 80, (3R)-8-{(2R)-2-hydroxy-2-[5-(1H-tetrazol-1-yl)pyrazin-2-yl]ethyl}-3-methyl-1-oxo-2-(5-oxo-2,5-dihydrofuran-3-yl)-2-aza-8-azoniaspiro[4.5]decane]
30 | CC1=C(N2CCC3(CCN(C[C@@H](O)c4cnc(-n5cnnn5)cn4)CC3)C2=O)COC1=O [Example 25, 8-{(2R)-2-hydroxy-2-[5-(1H-tetrazol-1-yl)pyrazin-2-yl]ethyl}-2-(4-methyl-5-oxo-2,5-dihydrofuran-3-yl)-1-oxo-2-aza-8-azoniaspiro[4.5]decane]
20 | CC1=C(N2CCC3(CCN(C[C@@H](O)c4ccc(-n5cnnn5)cn4)CC3)C2=O)COC1=O [Example 23, 8-{(2R)-2-hydroxy-2-[5-(1H-tetrazol-1-yl)pyridin-2-yl]ethyl}-2-(4-methyl-5-oxo-2,5-dihydrofuran-3-yl)-1-oxo-2-aza-8-azoniaspiro[4.5]decane]
